One test relates to MDA-MB-231. Briefly: Inhibition of Cell Proliferation (14C-thymidine incorporation), MDA-MB-231. It counts as cell-based. The settings on record: Homo sapiens, MDA-MB-231 cell line. As for the experimental part: (§1) The ability of a test compound to inhibit the proliferation of cell growth was determined by measuring incorporation of ^14C-labelled thymidine into newly synthesized DNA within the cells. […] Cells were trypsinized and counted and 3000-8000 cells were added to each well of a 96-well CytoStar tissue culture treated scintillating microplate (Amersham #RPNQ0160) in complete medium in a volume of 100 μl. Cells were incubated for 24 hours in complete medium at 37° C. in an atmosphere containing 5% CO2. Next, 1 μl of test compound in 100% DMSO was added to the wells of the plate. DMSO only was added to control wells. Cells were incubated for 24 more hours in complete medium at 37° C. in an atmosphere containing 5% CO2. […] The plate was incubated for 24 hours at 37° C. plus 5% CO2 in drug plus ^14C-thymidine. The contents of the plate were discarded into a ^14C radioactive waste container by inverting the plate and the plate was washed twice with 200 μl PBS. 200 μl of PBS is added to each well. […] The degree of methyl ^14C-thymidine incorporation was quantified on a Packard Top Count.
For orientation: Dividing cells build labelled thymidine or BrdU into new DNA.

For test [1], the system named is SK-OV-3 ovarian adenocarcinoma. In words: Inhibition of Cell Proliferation (14C-thymidine incorporation), SK-OV-3. To be noted: Homo sapiens, SK-OV-3 cell line. Type of test: cell-based. As for the experimental part: as §1
For the next test, the target named is FGF-R2 (Homo sapiens, UniProt P21802). Briefly: Kinase Selectivity Assay FGF-R2. It counts as biochemical. The settings on record: Tables 2a-2k. In short, it runs like this: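 Radiometric ^33P-γ-ATP transfer to a biotinylated peptide substrate captured on streptavidin plates; enzyme in 50 mM Tris-HCl pH 8.0, 0.1% BSA, 1% DMSO, 1 h at 30° C.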
Chain of FGF-R2 (P21802 22-821, species assumed): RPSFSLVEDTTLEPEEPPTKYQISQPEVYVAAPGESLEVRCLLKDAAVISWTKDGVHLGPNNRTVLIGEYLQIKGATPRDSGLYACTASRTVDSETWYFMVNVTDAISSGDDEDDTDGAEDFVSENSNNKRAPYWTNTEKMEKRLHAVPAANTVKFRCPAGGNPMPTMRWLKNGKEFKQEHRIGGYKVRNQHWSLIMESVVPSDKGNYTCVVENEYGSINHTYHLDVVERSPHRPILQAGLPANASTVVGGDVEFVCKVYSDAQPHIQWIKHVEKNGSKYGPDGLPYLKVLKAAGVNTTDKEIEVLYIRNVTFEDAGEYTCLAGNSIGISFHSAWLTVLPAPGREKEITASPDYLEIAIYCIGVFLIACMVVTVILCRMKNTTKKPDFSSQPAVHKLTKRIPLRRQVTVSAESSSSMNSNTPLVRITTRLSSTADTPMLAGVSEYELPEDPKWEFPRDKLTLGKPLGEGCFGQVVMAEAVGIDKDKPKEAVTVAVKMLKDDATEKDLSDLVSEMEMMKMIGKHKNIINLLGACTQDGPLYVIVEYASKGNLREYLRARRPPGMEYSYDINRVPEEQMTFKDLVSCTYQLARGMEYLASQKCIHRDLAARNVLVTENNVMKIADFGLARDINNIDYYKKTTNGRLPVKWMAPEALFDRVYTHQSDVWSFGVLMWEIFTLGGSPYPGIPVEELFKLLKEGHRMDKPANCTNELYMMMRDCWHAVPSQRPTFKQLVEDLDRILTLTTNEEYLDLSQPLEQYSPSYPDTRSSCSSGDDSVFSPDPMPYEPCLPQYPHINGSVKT
For test [2], the target named is T1, HER2 (human epidermal growth factor receptor-2) (Homo sapiens, UniProt P04626).
T1 construct: begins at amino acid 676 followed by the remainder of the HER2 cytoplasmic domain; polyhistidine (N)
T1 sequence (P04626 676-1255 limits assumed): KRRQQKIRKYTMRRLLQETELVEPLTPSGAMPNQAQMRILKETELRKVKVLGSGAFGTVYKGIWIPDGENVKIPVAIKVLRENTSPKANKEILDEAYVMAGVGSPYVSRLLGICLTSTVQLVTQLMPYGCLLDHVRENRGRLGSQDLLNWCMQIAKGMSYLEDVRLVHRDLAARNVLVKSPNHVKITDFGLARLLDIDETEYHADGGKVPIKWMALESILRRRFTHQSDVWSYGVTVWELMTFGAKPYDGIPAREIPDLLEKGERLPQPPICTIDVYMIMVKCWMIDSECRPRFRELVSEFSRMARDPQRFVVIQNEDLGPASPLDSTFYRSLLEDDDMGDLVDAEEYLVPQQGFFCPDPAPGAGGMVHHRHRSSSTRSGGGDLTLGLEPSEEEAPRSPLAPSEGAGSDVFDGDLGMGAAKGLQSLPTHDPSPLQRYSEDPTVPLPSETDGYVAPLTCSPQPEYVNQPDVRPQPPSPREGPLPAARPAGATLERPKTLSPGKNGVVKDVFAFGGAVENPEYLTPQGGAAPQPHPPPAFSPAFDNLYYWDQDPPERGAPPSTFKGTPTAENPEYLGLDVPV
Briefly: Kinase Selectivity Assay HER2. It counts as biochemical. To be noted: Kinase Selectivity, Tables 2a-2k; read-out: HER2 Kinase IC50. In short, it runs like this:
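Radiometric Flashplate format: ^33P-γ-ATP transfer to immobilized biotinylated peptide, 1 h, 30° C, 1% DMSO final, enzyme in 50 mM Tris-HCl pH=8.0 + 0.1% BSA. Duplicate 8-point dilution, 100 uM down to 10 pM. IC50 from % inhibition of plate max signal versus log conc.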

The source of these data is patent publication US6924302B2, “Substituted triazole diamine derivatives as kinase inhibitors” (Ortho McNeil Pharmaceutical, Inc., priority 2000, dated 2005).

For `Nc1nc(Nc2ccc(S(N)(=O)=O)cc2)nn1C(=O)c1c(F)cccc1F` [Cpd 1, 4-[[5-amino-1-(2,6-difluorobenzoyl)-1H-1,2,4-triazol-3-yl]amino]-benzenesulfonamide], the figures for the IC50 (with MDA-MB-231; in test [1]) were 587 nM and 750 nM, respectively.
Consider `Nc1nc(Nc2ccc(S(N)(=O)=O)cc2)nn1C(=O)c1cccs1` [Cpd 14, 4-[[5-amino-1-(2-thienylcarbonyl)-1H-1,2,4-triazol-3-yl]amino]-benzenesulfonamide], for which the IC50 was found to be 756 nM in the test with MDA-MB-231, 727 nM in test [1] and 27 nM against FGF-R2.
Turning to `Nc1nc(Nc2ccc(S(=O)(=O)N3CCCCC3)cc2)nn1C(=O)c1cccs1` [Cpd 23, N^3-[4-(1-piperidinylsulfonyl)phenyl]-1-(2-thienylcarbonyl)-1H-1,2,4-triazole-3,5-diamine], the figures for the IC50 (with MDA-MB-231; in test [1]) were 868 nM and 1420 nM, respectively.
Regarding `CCc1ccc(C(=O)n2nc(Nc3ccc(S(N)(=O)=O)cc3)nc2N)s1` [Cpd 32, 4-[[5-amino-1-[(5-ethyl-2-thienyl)carbonyl]-1H-1,2,4-triazol-3-yl]amino]-benzenesulfonamide], the IC50 in test [2] amounted to 9 nM; in the test on MDA-MB-231 it was 131 nM.
`Nc1nc(Nc2ccc(S(N)(=O)=O)cc2)nn1C(=O)C1CCCCC1` [Cpd 39, 4-[[5-amino-1-(cyclohexylcarbonyl)-1H-1,2,4-triazol-3-yl]amino]-benzenesulfonamide] displayed an IC50 in the test with MDA-MB-231 of 2910 nM.

As a reminder, the IC50 is the midpoint of a concentration-inhibition curve.
